Reference: ChEMBL document CHEMBL1201862, “PubChem BioAssay data set” (2004)
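How tested: cells in 96-well plates exposed to compound for 48 hours at five concentrations. GI50 marks 50% less growth.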 Calls of active or inactive are those of the source. No stated cut-off is given here; in the data, active = GI50 up to about 1.1 µM and inactive = higher. Where a SMILES comes first, the peptide text is derived from it. The star is where a group is joined. CH2Cl = ClC*

What was measured:
Test in all cases: growth of human tumour cells (NCI), 48 h
[1] = test system: HT-29
[2] = test system: MOLT-4
[3] = test system: SF-295
[4] = test system: MCF7
[5] = test system: A498
[6] = test system: HCT-15
[7] = test system: T47D
[8] = test system: HOP-62
[9] = test system: SN12C
[10] = test system: HOP-92
[11] = test system: 786-0
[12] = test system: MDA-MB-435
[13] = test system: NCI-H226
[14] = test system: COLO 205
[15] = test system: Hs-578T
[16] = test system: SK-MEL-2
[17] = test system: BT-549
[18] = test system: CCRF-CEM
[19] = test system: SK-OV-3
[20] = test system: RPMI-8226

Compound	GI50 [1]	GI50 [2]	GI50 [3]	GI50 [4]	GI50 [5]	GI50 [6] [µM]	GI50 [7]	GI50 [8]	GI50 [9]	GI50 [10]	GI50 [11]	GI50 [12]	GI50 [13]	GI50 [14]	GI50 [15]	GI50 [16]	GI50 [17]	GI50 [18]	GI50 [19]	GI50 [20]
CC[P+](c1ccccc1)(N(C)C)N(C)C	> 100 µM (inactive)	> 100 µM (inactive)	> 100 µM (inactive)	> 100 µM (inactive)	> 100 µM (inactive)	> 100	> 100 µM (inactive)	> 100 µM (inactive)	> 100 µM (inactive)	38.9 µM (inactive)	> 100 µM (inactive)	> 100 µM (inactive)	59.8 µM (inactive)	> 100 µM (inactive)	> 100 µM (inactive)	> 100 µM (inactive)	> 100 µM (inactive)	> 100 µM (inactive)	> 100 µM (inactive)	71.9 µM (inactive)
CN(C)CCCc1c[nH]c2ccccc12	> 100 µM (inactive)	> 100 µM (inactive)	> 100 µM (inactive)	> 100 µM (inactive)	> 100 µM (inactive)	> 100	> 100 µM (inactive)	> 100 µM (inactive)	> 100 µM (inactive)	> 100 µM (inactive)	> 100 µM (inactive)	> 100 µM (inactive)	> 100 µM (inactive)	> 100 µM (inactive)	> 100 µM (inactive)	> 100 µM (inactive)	> 100 µM (inactive)	> 100 µM (inactive)	> 100 µM (inactive)	> 100 µM (inactive)
COC(=O)c1ccccc1C1CN=NC12Cc1c(ccc(C)c1C)C2=O (centres undefined)	> 100 µM (inactive)	> 100 µM (inactive)	> 100 µM (inactive)	> 100 µM (inactive)	> 100 µM (inactive)	> 100	> 100 µM (inactive)	57.3 µM (inactive)	> 100 µM (inactive)	21.3 µM (inactive)	38.4 µM (inactive)	> 100 µM (inactive)	> 100 µM (inactive)	> 100 µM (inactive)	80.9 µM (inactive)	> 100 µM (inactive)	> 100 µM (inactive)	> 100 µM (inactive)	72.8 µM (inactive)	
COc1ccc(C2=NNC(=O)c3ccccc3N2c2nc(-c3cccs3)nc3ccc(Br)cc23)cc1	> 100 µM (inactive)	65.8 µM (inactive)	20.6 µM (inactive)	68.1 µM (inactive)	> 100 µM (inactive)	34.2	23.7 µM (inactive)	17.6 µM (inactive)	56 µM (inactive)	> 100 µM (inactive)	25.8 µM (inactive)	> 100 µM (inactive)	19.8 µM (inactive)	73.8 µM (inactive)	35.1 µM (inactive)	78.9 µM (inactive)	37.5 µM (inactive)	5.25 µM (inactive)	53.7 µM (inactive)	52.2 µM (inactive)
O=C1C=C(Nc2cccnc2)c2ccccc2/C1=N/O	11.1 µM (inactive)	15.7 µM (inactive)	39.2 µM (inactive)	21.6 µM (inactive)	41.3 µM (inactive)	15.2	30.1 µM (inactive)	23 µM (inactive)	34.4 µM (inactive)	21.8 µM (inactive)	57.7 µM (inactive)	12.7 µM (inactive)	58.7 µM (inactive)	19.4 µM (inactive)	33.4 µM (inactive)	31.3 µM (inactive)	34.1 µM (inactive)	5.85 µM (inactive)	46.2 µM (inactive)	38 µM (inactive)
CC(=O)NC(CC(C)C)C(=O)NC(Cc1ccccc1)C(=O)CCl (stereo not drawn) (Ac-Leu-Phe-CH2Cl; configuration not given here)	8.38 µM (inactive)	1.84 µM (inactive)	18.8 µM (inactive)	5.04 µM (inactive)	18.8 µM (inactive)	3.16	7.82 µM (inactive)	18.3 µM (inactive)	13.4 µM (inactive)	5.78 µM (inactive)	4 µM (inactive)	12.3 µM (inactive)	21.6 µM (inactive)	5.43 µM (inactive)	17.3 µM (inactive)	10.3 µM (inactive)	14.9 µM (inactive)	1.32 µM (inactive)	18.1 µM (inactive)	2.69 µM (inactive)
Clc1ccc(CCNCCNC2(c3cc4ccccc4s3)CCCCC2)cc1Cl	1.83 µM (inactive)	2.49 µM (inactive)	1.59 µM (inactive)	1.71 µM (inactive)	1.78 µM (inactive)	1.92	1.95 µM (inactive)	1.26 µM (inactive)	1.96 µM (inactive)	1.68 µM (inactive)	1.95 µM (inactive)	2.02 µM (inactive)	1.87 µM (inactive)	1.58 µM (inactive)	2.05 µM (inactive)	1.76 µM (inactive)	1.94 µM (inactive)	2.54 µM (inactive)	1.46 µM (inactive)	2.34 µM (inactive)
